These are literature values, as cited in publication PMC6203792, “An IL13Rα2 peptide exhibits therapeutic activity against metastatic colorectal cancer” (British Journal of Cancer, 2018).

This data set addresses IL13Rα2. As to conditions: read-out: affinity of IL-13/IL13Rα2 molecular recognition.

Take IL-13: Recombinant human IL-13: the Kd is about 500 pM.
